Measured values reported in PubChem BioAssay AID743072 (Broad Institute, 2013).
The source made the active and inactive calls. The rule behind the calls is not given here.

Tested on: M. tuberculosis BioA-TetON underexpression strain, growth inhibition
Experiment: antitubercular activity, BioA-TetON-5 strain, plate reader, dry powder (AID 743072)
Settings: for IC90: measured here: 90% growth inhibition

Structure (SMILES)	IC50	IC90 [µM]
CC(=O)c1ccc(N2CCN(C(=O)c3cccc(Cl)c3)CC2)cc1	2.2 µM	16.5
CCc1ccc(C(=O)N2CCN(Cc3ccc4c(c3)OCO4)CC2)cc1	5.2 µM	> 50
O=C(Nc1cccnc1)c1cnn2c(C(F)(F)F)cc(-c3ccccc3)nc12	> 50 µM (inactive)	> 50
O=C(O)CC/C(=C\c1ccccc1[N+](=O)[O-])c1nc2ccccc2s1	50 µM	> 50
CC(=O)c1ccc(N2CCN(C(=O)c3cccc(F)c3)CC2)cc1	> 50 µM (inactive)	> 50
Cc1nc2cc(NC(=O)N3CCN(c4ccccc4)CC3)ccc2o1	36 µM	> 50
CC(=O)c1ccc(N2CCN(C(=O)c3ccc4c(c3)OCO4)CC2)cc1	1.3 µM	9.3
O=C(Nc1ccccc1)N1CCN(c2ccccc2)CC1	3.2 µM	48.2
COc1ccc(N2CCN(C(=O)c3ccc4c(c3)OCO4)CC2)cc1	17.6 µM	> 50
COc1cc(/C=C/C(=O)Nc2cccnc2)cc(OC)c1OC	1.3 µM	15.3
CC(=O)c1ccc(N2CCN(C(=O)c3ccc(C)cc3)CC2)cc1	31.4 µM	> 50
Cc1ccc(-c2cc(C(F)(F)F)n3nc(C(=O)Nc4cccnc4)cc3n2)cc1	> 50 µM (inactive)	> 50
O=C(c1ccc2c(c1)OCO2)N1CCN(c2ccccc2)CC1	20.9 µM	> 50
CC(=O)c1ccc(N2CCN(C(=O)c3ccc4c(c3)OCCO4)CC2)cc1	> 50 µM (inactive)	> 50
COc1cccc(NC(=O)CCC2CCN(C(=O)c3ccc(C(C)=O)s3)CC2)c1	4.4 µM	> 50
CC(=O)c1ccc(N2CCN(Cc3ccc4c(c3)OCO4)CC2)cc1	25.2 µM	> 50
COc1cccc(NC(=O)N2CCN(c3ccccc3)CC2)c1	36.4 µM	> 50
CC(=O)c1ccc(N2CCN(C(=O)c3ccc(Cl)cc3)CC2)cc1	27.9 µM	> 50
CC(=O)c1ccc(N2CCN(C(=O)c3ccc(Br)cc3)CC2)c(F)c1	4.9 µM	> 50
O=C(Nc1cccnc1)c1cnn2c(C(F)F)cc(C3CC3)nc12	3.3 µM	> 50

Structure (SMILES)	IC50	IC90 [µM]
CCOC(=O)N1CCN(C(=O)Nc2ccc3snnc3c2)CC1	3.8 µM	29.6
COc1ccc(C(=O)N2CCN(c3ccc(C(C)=O)cc3)CC2)cc1	38.5 µM	> 50
O=C(Nc1cccnc1)N1CCN(c2ccccc2)CC1	> 50 µM (inactive)	> 50
CC(=O)c1ccc(N2CCN(C(=O)c3ccccc3)CC2)cc1	> 50 µM (inactive)	> 50
O=C(Nc1ccc(F)cc1)N1CCN(c2ccccc2)CC1	5.1 µM	> 50
CC(=O)c1ccc(N2CCN(C(=O)c3ccc4ncsc4c3)CC2)cc1	12.9 µM	> 50
Cc1nc2ccc(NC(=O)N3CCN(c4ccccc4)CC3)cc2s1	1.3 µM	3.8
O=C(Nc1ccc(Cl)c(-c2nc3ccccc3[nH]2)c1)c1cccnc1	1.9 µM	14.5
O=C(Nc1ccc2snnc2c1)N1CCCCC1	22 µM	> 50
CCN(CC)c1ccc2cc(C(=O)c3cccs3)c(=O)oc2c1	1.1 µM	5.6
O=C(Nc1cccc(Cl)c1)N1CCN(c2ccccc2)CC1	4.9 µM	> 50
O=C(Nc1ccncc1)c1cc2nc(C3CC3)cc(C(F)F)n2n1	50 µM	> 50
O=C(Nc1ccc2snnc2c1)N1CCN(c2ccccc2)CC1	0.9 µM	8.3
Cc1ccccc1/C=C(\CCC(=O)O)c1nc2ccccc2s1	4.7 µM	25.3
CC(=O)c1ccc(N2CCN(C(=O)c3cccnc3)CC2)cc1	> 50 µM (inactive)	> 50
Cc1cccc(/C=C(\CCC(=O)O)c2nc3ccccc3s2)c1	1.8 µM	9
CCc1ccc(N2CCN(C(=O)c3ccc4c(c3)OCO4)CC2)cc1	6.3 µM	> 50
Cc1ccc(NC(=O)N2CCN(c3ccccc3)CC2)cc1	10.6 µM	> 50
O=C(COc1ccc2ccc(=O)oc2c1)N1CCN(c2ccc(F)cc2)CC1	10.2 µM	42.7
O=C(Nc1ccc2snnc2c1)N1CCOCC1	> 50 µM (inactive)	> 50

Structure (SMILES)	IC50	IC90 [µM]
COC(=O)c1c(C(=O)OC)c(-c2cccc(F)c2)n2c1CS(=O)C2 (stereo not given)	1.7 µM	34.9
Cc1cc(C)n2nc(C(=O)Nc3cccnc3)nc2n1	50 µM	> 50
CC(=O)c1ccc(N2CCN(C(=O)c3ccc(F)cc3)CC2)cc1	44.7 µM	> 50
O=C(c1ccc2c(c1)OCO2)N1CCN(Cc2ccccc2)CC1	> 50 µM (inactive)	> 50
Cc1ccc(/C=C(\CCC(=O)O)c2nc3ccccc3s2)cc1[N+](=O)[O-]	0.3 µM	0.7
O=C(Nc1cccnc1)c1cc2nc(-c3cccs3)cc(C(F)(F)F)n2n1	> 50 µM (inactive)	> 50
Cc1ccc(/C=C(\CCCC(=O)O)c2nc3ccccc3s2)cc1[N+](=O)[O-]	6.1 µM	46.2
Cc1ccc(/C=C(\CCC(=O)O)c2nc3ccccc3s2)cc1	1 µM	2.8
O=C(c1ccc2c(c1)OCO2)N1CCN(c2ccc(Cl)cc2)CC1	11.3 µM	44.5
CC(C)(C)c1ccc(C(=O)N2CCN(c3ccc4c(c3)OCO4)CC2)cc1	10.7 µM	29.5
O=C(Nc1ccc(Cl)cc1)c1cc2nc(C3CC3)cc(C(F)(F)F)n2n1	50 µM	> 50
O=C(c1ccc2c(c1)OCO2)N1CCN(c2ccc(F)cc2)CC1	10.6 µM	> 50
COc1ccc(NC(=O)N2CCN(c3ccccc3)CC2)cc1	48 µM	> 50
Cc1cc(C)n2nc(C(=O)Nc3cccnc3)cc2n1	4.2 µM	> 50
Cc1ccc(/C=C(\CC(=O)O)c2nc3ccccc3s2)cc1[N+](=O)[O-]	2.9 µM	17.2
O=C(Nc1cccc(F)c1)N1CCN(c2ccccc2)CC1	4.6 µM	32.9
O=C(O)CC/C(=C\c1ccc([N+](=O)[O-])cc1)c1nc2ccccc2s1	1.3 µM	7.9
COc1cccc(C(=O)N2CCN(c3ccc(C(C)=O)cc3)CC2)c1	41.5 µM	> 50
COc1ccc(-c2cc(C(F)(F)F)n3nc(C(=O)Nc4cccnc4)cc3n2)cc1	0.3 µM	0.9
O=C(Nc1ccc2[nH]ccc2c1)N1CCN(c2ccccc2)CC1	11.7 µM	> 50
